Test results reported in the NIST ThermoML archive (doi:10.1016/j.tca.2014.06.017).
± gives the expanded uncertainty stated by the source.

Conditions: Crystal; DTA

OC[C@@H](O)[C@@H](O)[C@H](O)[C@H](O)CO [D-mannitol]
Normal melting temperature: 162 ± 11 °C
